Source: patent publication US20140066385A1, “METHOD FOR TREATING CANCER BY COMBINED USE OF DRUGS” (Astellas Pharma Inc., priority 2011, published 2014)

Assays:
[1] = tested on: human non-small cell lung cancer (Calu-6); test: Example 2: FK330 with multicycle paclitaxel in Calu-6 tumor-bearing mice; assay type: in vivo, nude mice; details: for tumor volume reduction ratio compared with the paclitaxel-only group: FK330 100 mg/kg bid p.o. continuously + paclitaxel 10 mg/kg/day i.v. multicycle, P<0.01
Protocol: The dose of FK330 is expressed in weight including the hydrate. A paclitaxel injectable preparation (paclitaxel injection liquid, “Sawai”) was purchased from Sawai Pharmaceutical Co., Ltd., and was used as paclitaxel.
FK330 was suspended (20 mg/mL) in a 0.5% aqueous methyl cellulose solution (0.5% MC). Paclitaxel was prepared with physiological saline for injection (Otsuka Pharmaceutical Group) to a concentration of 1 mg/mL at the time of use.
(§1) Human lung cancer-derived Calu 6 (HTB-56) was obtained from American Type Culture Collection (VA, USA). The cells were cultured under the conditions of 37° C. and 5% CO2 by using RPMI1640 medium containing 10% heat-inactivated fetal bovine serum (FBS). The cells were harvested with trypsin and were suspended in PBS at 6×10^7 cells/mL, and the suspension was mixed with an equal amount of Matrigel (trade name) Basement Membrane Matrix (manufactured by Becton Dickinson Co., Bedford, Mass., USA).
Five-week old male nude mice (CAnN Cg-Foxn1nu/CrICrlj(nu/nu)) were purchased from Charles River Laboratories Japan, Inc. (Japan, Kanagawa). The animals were raised under specific pathogen-free (SPF) conditions throughout the test period by feeding standard feedstuff and drinking water. The cultured cells were subcutaneously inoculated into the dorsal region of the nude mice at a concentration of 3×10^6 cells/0.1 mL/mouse. Nude mice which had the tumor volumes (major axis×[minor axis]^2×0.52) ranging from 136.5 mm^3 to 299.0 mm^3 were assigned by using SAS to minimize the fluctuation in the tumor volume between the groups and within the group.
The first day of administration was designated as Day 1, and observation was made until Day 83. The respective groups (n=6) were treated as follows. FK330 was orally gavaged in an amount of 5 mL/kg, and paclitaxel was administered intravenously through the tail vein in an amount of 10 mL/kg. Paclitaxel was continuously administered from Day 1 to Day 7, and then was withdrawn for 23 days (1 cycle). In the administration of PTX in the second cycle and the third cycle, PTX was continuously administered for 6 days from Day 31 and from Day 60, respectively. […]
(§2) Every 2 to 4 days, the body weight and the tumor diameters, determined by using a digital caliper, were measured. The tumor volume was calculated from the calculation formula for ellipsoid volume of (major axis×[minor axis]^2×0.52).
The results are expressed as the mean value (Mean)±standard error (SEM). […] Using the actual measured values of the tumor volume at the end of the study, an unpaired statistical test (Student's t-test) of the difference between two groups was carried out between a single administration group and a combined use group. […]

[2] = tested on: human gastric cancer (AZ-521); test: Example 5: FK330 with paclitaxel in AZ-521 tumor-bearing mice; assay type: in vivo, nude mice; details: for tumor volume on the last day of experiment: AZ-521, Day 46, mean±SEM
Protocol: Preparation of the test substances was carried out in the same manner as in Example 2.
as §1, with “gastric” for “lung”, “NCI-N87 (CRL-5822)” for “Calu 6 (HTB-56)”, “USA), MKN-28 (JCRB0253) was obtained from Health Science Research Resources Bank (HSRRB), and AZ-521 (RCB2087) was obtained from Riken BRC. NCI-N87 and MKN-28” for “USA). The”, “(FBS), and AZ-521 cells were cultured under the conditions of 37° C. and 5% CO2 by using DMEM medium containing 10% heat-inactivated FBS.” for “(FBS).”
Five-week old male nude mice (CAnN Cg-Foxn1nu/CrlCrlj(nu/nu)) were purchased from Charles River Laboratories Japan, Inc. (Japan, Kanagawa). The animals were raised under specific pathogen-free (SPF) conditions throughout the test period by feeding standard feedstuff and drinking water. The cultured cells were subcutaneously inoculated into the dorsal region of the nude mice at a concentration of 3×10^6 cells/0.1 mL/mouse. […]
as §2
The results are expressed as the mean value (Mean)±standard error (SEM). Using the actual measured values of the tumor volume at each measurement time point, an unpaired statistical test (Student's t-test) of the difference between two groups was carried out between a single administration group and a combined use group. […]

Row | SMILES | anti-tumor effect of paclitaxel as a result of multicycle administration ([1]; paclitaxel 10 mg/kg/day i.v. alone, three cycles, until Day 83) | tumor volume on the last day of experiment ([2]; paclitaxel-only group 10 mg/kg/day i.v., two cycles) | tumor volume reduction ratio compared with the paclitaxel-only group ([1]; Day 29) | tumor volume reduction ratio compared with the paclitaxel-only group ([1]; Day 60) | tumor volume reduction ratio compared with the paclitaxel-only group ([1]; Day 83) | tumor volume on the last day of experiment ([2]; combined use group paclitaxel 10 mg/kg/day + FK330 100 mg/kg bid) | tumor volume decrease compared with the paclitaxel-only group ([2]; AZ-521, last day, FK330 100 mg/kg bid + paclitaxel, P<0.01)
1 | CC(=O)O[C@H]1C(=O)[C@@]2(C)[C@H]([C@H](OC(=O)c3ccccc3)[C@]3(O)C[C@H](OC(=O)[C@H](O)[C@@H](NC(=O)c4ccccc4)c4ccccc4)C(C)=C1C3(C)C)[C@]1(OC(C)=O)CO[C@@H]1C[C@@H]2O [paclitaxel, reference compound] | tended to attenuate | 3285.4±359.4 mm^3 |  |  |  |  | 
2 | O=C(/C=C/c1ccc(Cl)cc1)N[C@@H](Cc1ccccn1)C(=O)NCC(=O)N1CCC(Oc2cc(C(F)(F)F)ncn2)CC1 [FK330, N^2-[(2E)-3-(4-chlorophenyl)-2-propenoyl]-N-[2-oxo-2-(4-{[6-(trifluoromethyl)pyrimidin-4-yl]oxy}piperidin-1-yl)ethyl]-3-pyridin-2-yl-L-alaninamide] |  |  | 57.6% | 86.1% | 87.6% | 795.0±223.3 mm^3 | 75.8%
